The numbers were not newly measured in patent US4096052A, “Electrochemical hydroxylation of certain aromatic compounds” (priority 1977, dated 1978), which cites them from elsewhere.

Molecules are shown by their SMILES. Like-named read-outs stand apart in the source and are kept apart here.

Setting [1] is: Table II (comparison acids), H2O, 25° C.

With `O=C(O)c1ccccc1[N+](=O)[O-]` [o-nitrobenzoic, o-nitrobenzoic acid], where the note is “Table I, H2O, 18° C”, the “Ka (H2 O)” value was 6.95 × 10^-3. Also, the “pKa (H2 O)” value (water) is recorded as 2.16.

Consider `O=C(O)C(F)(F)F` [trifluoroacetic, trifluoroacetic acid], for which, for the setting “Table I footnote, H2O, 25° C”, the “dissociation in aqueous solution (Table I footnote in place of Ka)” value was “completely dissociated in aqueous solution”. Moreover, the “pKa (H2 O) at 25° C” value (Table I, H2O, 25° C) is 0.

On to `C=CCC(=O)O` [vinylacetic], for which, under “water”, the “pKa (H2 O) at 25° C” value is reported as 4.34.

As for `O=C(O)Cc1ccccc1` [phenylacetic], under “Table II, H2O, 18° C”, the “Ka (H2 O)” value was 5.2 and the “pKa (H2 O)” value is on record as 4.28.

As for `N#CCC(=O)O` [cyanoacetic, cyanoacetic acid], the “Ka (H2 O) at 25° C” value (Table I, H2O, 25° C) is 3.65 × 10^-3. The “pKa (H2 O) at 25° C” value (water) is on record as 2.41.

Consider `O=C(O)CBr` [bromoacetic], for which, where the note is “Table I, H2O, 25° C”, the “Ka (H2 O) at 25° C” value is 2.05 × 10^-3.

Take `O=C(O)CCCl` [β-chloropropionic]: under setting [1], the “Ka (H2 O) at 25° C” value was 1.04 × 10^-4 and the “pKa (H2 O) at 25° C” value was 3.98.

In the case of `CC(Cl)C(=O)O` (stereo not drawn) [α-chloropropionic], for the setting “Table I, H2O, 25° C”, the “Ka (H2 O) at 25° C” value was 1.47 × 10^-3 and the “pKa (H2 O) at 25° C” value was 2.83.

For `O=C(O)C(Cl)Cl` [dichloroacetic], under “Table I, H2O, 25° C”, the “Ka (H2 O) at 25° C” value is given as 3.32 × 10^-2.

For the molecule `CC(Cl)CC(=O)O` (stereo not drawn) [β-chlorobutyric], under setting [1], the “Ka (H2 O) at 25° C” value is on record as 8.9 × 10^-5 and the “pKa (H2 O) at 25° C” value is 4.05.

For `CCCCC(=O)O` [n-valeric], the “Ka (H2 O) at 25° C” value under setting [1] is given as 1.5 × 10^-5.

In the case of `CCC(=O)O` [propionic], under setting [1], the “Ka (H2 O) at 25° C” value was 1.34 × 10^-5.

Consider `O=C(O)C(Cl)(Cl)Cl` [trichloroacetic, trichloroacetic acid], for which, under “Table I, H2O, 25° C”, the “Ka (H2 O) at 25° C” value was 2 × 10^-1 and the “pKa (H2 O) at 25° C” value is listed as 0.70.

For the molecule `O=C(O)CCl` [chloroacetic, chloroacetic acid], for the setting “Table I, H2O, 25° C”, the “Ka (H2 O) at 25° C” value was 1.4 × 10^-3.

Regarding `CCC(Cl)C(=O)O` (stereo not drawn) [α-chlorobutyric], for the setting “Table I, H2O, 25° C”, the “Ka (H2 O) at 25° C” value was 1.39 × 10^-3 and the “pKa (H2 O) at 25° C” value is 2.86.
